Laboratory results from patent US20110195900A1, “PEPTIDIC PTH RECEPTOR AGONISTS” (FERRING B.V., priority 2008, published 2011).
Read-outs that look alike come from different tables or passages of the source. Non-standard residues stand in square brackets, D forms with d. Residues, ends and D or L forms follow the SMILES beside them. 1Nal = N[C@@H](Cc1cccc2ccccc12)C(=O)O; 2Nal = N[C@@H](Cc1ccc2ccccc2c1)C(=O)O; β3hI = CC[C@H](C)[C@H](N)CC(=O)O; β3hF = N[C@H](CC(=O)O)Cc1ccccc1; hSer = N[C@@H](CCO)C(=O)O; Nle = CCCC[C@H](N)C(=O)O; Aib = CC(C)(N)C(=O)O; βAla = NCCC(=O)O

Target: T1, human PTH-1 receptor (Homo sapiens, UniProt Q03431)
T1 construct: expressed in transfected cells; host or cells: HEK-293
T1 sequence (Q03431 27-593): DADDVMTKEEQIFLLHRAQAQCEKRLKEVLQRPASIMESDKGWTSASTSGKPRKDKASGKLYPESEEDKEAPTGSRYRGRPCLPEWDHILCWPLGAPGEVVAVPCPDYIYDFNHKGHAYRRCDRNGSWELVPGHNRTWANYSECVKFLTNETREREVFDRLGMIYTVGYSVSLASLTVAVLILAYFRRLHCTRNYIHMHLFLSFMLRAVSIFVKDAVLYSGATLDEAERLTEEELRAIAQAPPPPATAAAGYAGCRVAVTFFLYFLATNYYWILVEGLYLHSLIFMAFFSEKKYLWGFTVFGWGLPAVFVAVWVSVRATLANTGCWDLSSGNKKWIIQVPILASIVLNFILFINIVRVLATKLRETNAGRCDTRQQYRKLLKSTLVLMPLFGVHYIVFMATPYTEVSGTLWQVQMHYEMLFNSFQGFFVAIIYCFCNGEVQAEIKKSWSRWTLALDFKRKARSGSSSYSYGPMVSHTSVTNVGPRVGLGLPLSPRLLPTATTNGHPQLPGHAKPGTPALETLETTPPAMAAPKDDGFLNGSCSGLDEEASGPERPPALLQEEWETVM
Assay: Reporter gene assay (CRE-luciferase) for agonist activity in transiently transfected HEK-293 cells
Format: cell-based
Settings: for hPTHR-2/hPTHR-1: ratio of EC50 values, selectivity for hPTH-1 receptor over hPTH-2 receptor
Experimental: Agonist activity of compounds on the human PTH-1 receptor was determined in a reporter gene assay by transiently transfecting HEK-293 cells with plasmids encoding human PTH-1 receptor under control of the SV40 promoter and a luciferase reporter gene under control of cAMP responsive elements (CRE). See Himmler et al, J. Recept. Res. 13 (1993) 79-94, for further guidance on this assay. Transfected cells were exposed to serial dilutions of compounds for 4-5 hours followed by lysis of cells, determination of luciferase activity, and determination of compound efficacies and EC50 values through non-linear regression.
PTH (1-34) was used as an internal control in each experiment and compounds were tested in at least three independent experiments. To determine selectivity, compounds were tested in luciferase-based transcriptional reporter gene assays expressing the human PTH-2 receptor.

[1] = Table 3, HEK-293 cells, CRE-luciferase, 4-5 hours exposure, read-out: hPTHR-1 EC50

Row | SMILES | EC50 [1] [nM] | hPTHR-2/hPTHR-1 (Table 3) | EC50 [nM]
1 | CCCC[C@H](NC(=O)[C@H](CO)NC(=O)[C@H](CC(N)=O)NC(=O)[C@H](CC(C)C)NC(=O)[C@H](Cc1c[nH]cn1)NC(=O)[C@H](CCCCN)NC(=O)CNC(=O)[C@H](CC(C)C)NC(=O)[C@H](CC(N)=O)NC(=O)[C@H](Cc1c[nH]cn1)NC(=O)[C@H](CCCC)NC(=O)[C@H](CC(C)C)NC(=O)[C@H](CCC(N)=O)NC(=O)[C@@H](NC(=O)[C@H](CCC(=O)O)NC(=O)[C@H](CO)NC(=O)[C@@H](NC(=O)[C@@H](N)CO)C(C)C)[C@@H](C)CC)C(=O)NCCC(=O)N[C@@H](CCCNC(=N)N)C(=O)N[C@H](C(=O)N[C@@H](CCC(=O)O)C(=O)N[C@@H](Cc1cccc2ccccc12)C(=O)N[C@@H](CC(C)C)C(=O)N[C@@H](CCCNC(=N)N)C(=O)N[C@@H](CCCCN)C(=O)N[C@@H](CCCCN)C(=O)N[C@@H](CC(C)C)C(=O)N[C@@H](CCC(N)=O)C(=O)N[C@@H](CC(=O)O)C(=O)N[C@H](C(=O)N[C@@H](Cc1c[nH]cn1)C(=O)N[C@@H](CC(N)=O)C(=O)N[C@@H](Cc1ccccc1)C(N)=O)C(C)C)C(C)C [SEQ ID NO: 7, [Nle^8,18, β-Ala^19,1-Nal^23] hPTH (1-34)-NH2] (H-SVSEIQL[Nle]HNLGKHLNS[Nle][βAla]RVE[1Nal]LRKKLQDVHNF-NH2) | 0.21 | 52 | –
2 | CCCC[C@H](NC(=O)CCNC(=O)[C@H](CC(N)=O)NC(=O)[C@H](CC(C)C)NC(=O)[C@H](Cc1c[nH]cn1)NC(=O)[C@H](CCCCN)NC(=O)CNC(=O)[C@H](CC(C)C)NC(=O)[C@H](CC(N)=O)NC(=O)[C@H](Cc1c[nH]cn1)NC(=O)[C@H](CCCC)NC(=O)[C@H](CC(C)C)NC(=O)[C@H](CCC(N)=O)NC(=O)[C@@H](NC(=O)[C@H](CCC(=O)O)NC(=O)[C@H](CO)NC(=O)[C@@H](NC(=O)[C@H](C)N)C(C)C)[C@@H](C)CC)C(=O)N[C@@H](CCC(=O)O)C(=O)N[C@@H](CCCNC(=N)N)C(=O)N[C@H](C(=O)N[C@@H](CCC(=O)O)C(=O)N[C@@H](Cc1ccc2ccccc2c1)C(=O)N[C@@H](CC(C)C)C(=O)N[C@@H](CCCNC(=N)N)C(=O)N[C@@H](CCCCN)C(=O)N[C@@H](CCCCN)C(=O)N[C@@H](CC(C)C)C(=O)N[C@@H](CCC(N)=O)C(=O)N[C@@H](CC(=O)O)C(=O)N[C@H](C(=O)N[C@@H](Cc1c[nH]cn1)C(=O)N[C@@H](CC(N)=O)C(=O)N[C@@H](Cc1ccccc1)C(N)=O)C(C)C)C(C)C [SEQ ID NO: 12, [Ala^1, Nle^8,18, β-Ala^17,2-Nal^23] hPTH (1-34)-NH2] (H-AVSEIQL[Nle]HNLGKHLN[βAla][Nle]ERVE[2Nal]LRKKLQDVHNF-NH2) | 0.22 | 430 | –
3 | CCCC[C@H](NC(=O)[C@H](CC(C)C)NC(=O)[C@H](CCC(N)=O)NC(=O)[C@@H](NC(=O)[C@H](CCC(=O)O)NC(=O)[C@H](CO)NC(=O)[C@@H](NC(=O)[C@@H](N)CO)C(C)C)[C@@H](C)CC)C(=O)N[C@@H](Cc1c[nH]cn1)C(=O)N[C@@H](CC(N)=O)C(=O)N[C@@H](CC(C)C)C(=O)NCC(=O)N[C@@H](CCCCN)C(=O)N[C@@H](Cc1c[nH]cn1)C(=O)N[C@@H](CC(C)C)C(=O)N[C@@H](CC(N)=O)C(=O)NCCC(=O)N[C@@H](CCOC)C(=O)N[C@@H](CCC(=O)O)C(=O)N[C@@H](CCCNC(=N)N)C(=O)N[C@H](C(=O)N[C@@H](CCC(=O)O)C(=O)N[C@@H](Cc1cccc2ccccc12)C(=O)N[C@@H](CC(C)C)C(=O)N[C@@H](CCCNC(=N)N)C(=O)N[C@@H](CCCCN)C(=O)N[C@@H](CC(C)C)C(=O)N[C@@H](CC(C)C)C(=O)N[C@@H](CCC(N)=O)C(=O)N[C@@H](CC(=O)O)C(=O)N[C@H](C(=O)N[C@@H](Cc1c[nH]cn1)C(=O)N[C@@H](CC(N)=O)C(=O)N[C@@H](Cc1ccccc1)C(N)=O)C(C)C)C(C)C [SEQ ID NO: 16, [Nle^8, β-Ala^17, hSer(OMe)^18,1-Nal^23, Leu^27] hPTH (1-34)-NH2] (H-SVSEIQL[Nle]HNLGKHLN[βAla][hSer](Me)ERVE[1Nal]LRKLLQDVHNF-NH2) | – | 719 | 0.13
4 | CCCC[C@H](NC(=O)[C@H](CC(C)C)NC(=O)[C@H](CCC(N)=O)NC(=O)[C@@H](NC(=O)[C@H](CCC(=O)O)NC(=O)[C@H](CO)NC(=O)[C@@H](NC(=O)C(C)(C)N)C(C)C)[C@@H](C)CC)C(=O)N[C@@H](Cc1c[nH]cn1)C(=O)N[C@@H](CC(N)=O)C(=O)N[C@@H](CC(C)C)C(=O)NCC(=O)N[C@@H](CCCCN)C(=O)N[C@@H](Cc1c[nH]cn1)C(=O)N[C@@H](CC(C)C)C(=O)N[C@@H](CC(N)=O)C(=O)N[C@@H](CO)C(=O)N[C@H](CC(=O)N[C@@H](CCC(=O)O)C(=O)N[C@@H](CCCNC(=N)N)C(=O)N[C@H](C(=O)N[C@@H](CCC(=O)O)C(=O)N[C@@H](Cc1cccc2ccccc12)C(=O)N[C@@H](CC(C)C)C(=O)N[C@@H](CCCNC(=N)N)C(=O)N[C@@H](CCCCN)C(=O)N[C@@H](CC(C)C)C(=O)N[C@@H](CC(C)C)C(=O)N[C@@H](CCC(N)=O)C(=O)N[C@@H](CC(=O)O)C(=O)N[C@H](C(=O)N[C@@H](Cc1c[nH]cn1)C(=O)N[C@@H](CC(N)=O)C(=O)N[C@@H](Cc1ccccc1)C(N)=O)C(C)C)C(C)C)Cc1ccccc1 [SEQ ID NO: 42, [Aib^1, Nle^8, β-hPhe^18,1-Nal^23, Leu^27 hPTH (1-34)-NH2] (H-[Aib]VSEIQL[Nle]HNLGKHLNS[β3hF]ERVE[1Nal]LRKLLQDVHNF-NH2; N-terminus assumed) | – | 88 | 0.06
5 | CCCC[C@H](NC(=O)[C@H](CC(C)C)NC(=O)[C@H](CCC(N)=O)NC(=O)[C@@H](NC(=O)[C@H](CCC(=O)O)NC(=O)[C@H](CO)NC(=O)[C@@H](NC(=O)[C@@H](N)CO)C(C)C)[C@@H](C)CC)C(=O)N[C@@H](Cc1c[nH]cn1)C(=O)N[C@@H](CC(N)=O)C(=O)N[C@@H](CC(C)C)C(=O)NCC(=O)N[C@@H](CCCCN)C(=O)N[C@@H](Cc1c[nH]cn1)C(=O)N[C@@H](CC(C)C)C(=O)N[C@@H](CO)C(=O)N[C@@H](CO)C(=O)N[C@H](CC(=O)N[C@@H](CCC(=O)O)C(=O)N[C@@H](CCCNC(=N)N)C(=O)N[C@H](C(=O)N[C@@H](CCC(=O)O)C(=O)N[C@@H](Cc1cccc2ccccc12)C(=O)N[C@@H](CC(C)C)C(=O)N[C@@H](CCCNC(=N)N)C(=O)N[C@@H](CCCCN)C(=O)N[C@@H](CC(C)C)C(=O)N[C@@H](CC(C)C)C(=O)N[C@@H](CCC(N)=O)C(=O)N[C@@H](CC(=O)O)C(=O)N[C@H](C(=O)N[C@@H](Cc1c[nH]cn1)C(=O)N[C@@H](CC(N)=O)C(=O)N[C@@H](Cc1ccccc1)C(N)=O)C(C)C)C(C)C)[C@@H](C)CC [SEQ ID NO: 22, [Nle^8, Ser^16, β-hIle^18,1-Nal^23, Leu^27] hPTH (1-34)-NH2] (H-SVSEIQL[Nle]HNLGKHLSS[β3hI]ERVE[1Nal]LRKLLQDVHNF-NH2) | – | 101 | 0.19
6 | CCCC[C@H](NC(=O)[C@H](CC(C)C)NC(=O)[C@H](CCC(N)=O)NC(=O)[C@@H](NC(=O)[C@H](CCC(=O)O)NC(=O)[C@H](CO)NC(=O)[C@@H](NC(=O)C(C)(C)N)C(C)C)[C@@H](C)CC)C(=O)N[C@@H](Cc1c[nH]cn1)C(=O)N[C@@H](CO)C(=O)N[C@@H](CC(C)C)C(=O)NCC(=O)N[C@@H](CCCCN)C(=O)N[C@@H](Cc1c[nH]cn1)C(=O)N[C@@H](CC(C)C)C(=O)N[C@@H](CCCCN)C(=O)N[C@@H](CO)C(=O)N[C@H](CC(=O)N[C@@H](CCC(=O)O)C(=O)N[C@@H](CCCNC(=N)N)C(=O)N[C@H](C(=O)N[C@@H](CCC(=O)O)C(=O)N[C@@H](Cc1cccc2ccccc12)C(=O)N[C@@H](CC(C)C)C(=O)N[C@@H](CCCNC(=N)N)C(=O)N[C@@H](CCCCN)C(=O)N[C@@H](CC(C)C)C(=O)N[C@@H](CC(C)C)C(=O)N[C@@H](CCC(N)=O)C(=O)N[C@@H](CCCNC(=N)N)C(=O)N[C@H](C(=O)N[C@@H](Cc1c[nH]cn1)C(=O)N[C@@H](CCC(=O)O)C(=O)N[C@@H](CCC(=O)O)C(N)=O)C(C)C)C(C)C)[C@@H](C)CC [SEQ ID NO: 4, [Aib^1, Nle^8, Ser^10, Lys^16, β-hIle^18,1-Nal^23, Leu^27, Arg^30, Glu^33, Glu^34] hPTH (1-34)-NH2] (H-[Aib]VSEIQL[Nle]HSLGKHLKS[β3hI]ERVE[1Nal]LRKLLQRVHEE-NH2) | – | 110 | 0.04
